In BindingDB's records for patent US12427146 (Inventisbio Co., 2025):

How the values were obtained:
[1] = target: Tyrosine-protein kinase CSK (Homo sapiens, UniProt P41240); test: CSK Inhibition Assay
Protocol: Test compound was dissolved in DMSO at 10 mM. 45 uL of compound was transferred into a 384-well compound source plate (LABCYTE cat #P-05525) and serially diluted at 1:3 ratio to create a 11-point dilutions. The same volume of DMSO was adopted as high control. 20 nL of these compounds DMSO dilutes were dispensed into a new 384-well assay plate by Echo 550. […] 15 uL of kinase assay buffer containing CSK protein and substrate was transferred to assay plate and incubated at RT for 30 minutes. Kinase assay buffer supplemented with substrate peptides was employed as low control to monitor the background. 4 μM of ATP was prepared in kinase assay buffer and 5 μL of ATP solution was added to each well to start the reaction. The assay plate was incubated at 25° C. for 90 minutes and the reaction was stopped by adding 40 μL of 0.5 M EDTA.

[2] = target: Tyrosine-protein kinase Lck (Homo sapiens, UniProt P06239); test: LCK Inhibition Assay
Protocol: Test compound was dissolved in DMSO at 10 mM. 45 uL of compound was transfer into a 384-well compound source plate (LABCYTE cat #P-05525) and serially diluted at 1:3 ratio to create a 11-point dilutions. The same volume of DMSO was adopted as high control. 20 nL of these compounds DMSO dilutes were dispensed into a new 384-well assay plate by Echo 550. LCK protein (0.50 nM, Cama Biosciences, cat #08-170), florescent labeled substrate FLPeptide4 (2 μM, PerkinElmer, cat #760348) was prepared in kinase assay buffer (50 mM HEPES (pH 7.5), 10 mM MgCl2, 0.01% Brij-35, 2 mM DTT and 0.005 mg/ml BSA). 15 uL of kinase assay buffer containing LCK protein and substrate was transferred to assay plate and incubate at RT for 30 minutes. Kinase assay buffer supplemented with substrate peptides was employed as low control to monitor the background. 400 μM ATP was prepared in kinase assay buffer and 5 μL of ATP solution was added to each well to start the reaction. The assay plate was incubated at 25° C. for 90 minutes and the reaction was stopped by adding 40 μL of 0.5 M EDTA.

Sequence of Tyrosine-protein kinase Lck (P06239 whole entry): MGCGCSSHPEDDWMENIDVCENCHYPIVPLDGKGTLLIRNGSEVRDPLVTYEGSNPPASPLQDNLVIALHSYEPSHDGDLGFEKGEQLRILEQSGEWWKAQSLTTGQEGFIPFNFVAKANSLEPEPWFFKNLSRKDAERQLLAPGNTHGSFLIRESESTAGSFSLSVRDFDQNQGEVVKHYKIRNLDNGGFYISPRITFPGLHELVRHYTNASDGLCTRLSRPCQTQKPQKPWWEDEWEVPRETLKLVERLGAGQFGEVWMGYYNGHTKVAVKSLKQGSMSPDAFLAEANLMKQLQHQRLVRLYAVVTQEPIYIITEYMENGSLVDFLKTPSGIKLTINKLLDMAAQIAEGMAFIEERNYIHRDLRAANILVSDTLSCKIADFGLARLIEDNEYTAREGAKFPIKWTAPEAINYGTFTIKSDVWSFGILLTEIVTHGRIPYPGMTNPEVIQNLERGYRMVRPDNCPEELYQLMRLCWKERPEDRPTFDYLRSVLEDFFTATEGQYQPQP

IC50 [1] | IC50 [2] | Structure (SMILES)
25.2 nM |  | COc1cc(NS(=O)(=O)c2c(F)cccc2F)cc(-c2nc(-c3cncc(F)c3)sc2-c2ccnc(N)n2)c1 [US12427146, Compound 21]
132 nM | > 1000 nM | Nc1nccc(-c2sc(-c3ccccc3)nc2-c2cc(F)cc(NS(=O)(=O)c3c(F)cccc3F)c2)n1 [US12427146, Compound 20]

The next lines start with the compound.

Structure (SMILES) | IC50 [1] | IC50 [2]
COc1cc(NS(=O)(=O)c2c(F)cccc2F)c(F)c(-c2nc(-c3ccccc3)sc2-c2ccnc(N)n2)c1 [US12427146, Compound 23] | 4.1 nM | < 100 nM
Nc1nccc(-c2sc(-c3ccccc3)nc2-c2cccc(NS(=O)(=O)c3ccc4c(c3)CNC4)c2F)n1 [US12427146, Compound 82] | > 10000 nM | 
Nc1nccc(-c2sc(-c3ccccc3)nc2-c2cccc(NS(=O)(=O)c3ccc4c(c3)CNC4=O)c2F)n1 [US12427146, Compound 81] | 4510 nM | 
COc1cc(F)c(S(=O)(=O)Nc2cccc(-c3nc(-c4ccccc4)sc3-c3ccnc(N)n3)c2F)c(F)c1 [US12427146, Compound 22] | 44.8 nM | > 1000 nM
